{"source": "patent US20250241962A1", "about": "“METHODS AND COMPOSITIONS FOR INCREASING NEURONAL ACTIVITY AND SYNAPTIC PLASTICITY” (SanBio, Inc., priority 2024, published 2025)", "key": {"[1]": {"tested_on": "glutamate receptor", "experiment": "Glutamate receptor blockage on iFbN culture (MEA spike activity)", "assay_type": "cell-based, human", "settings": "50 μM", "method": "Glutamatergic or GABAergic neurons, 9×10^4 cells per well or 1×10^5 cells per well, were plated in 25 μL volume cell in BrainPhys™ medium supplemented with NeuroCult™ SM1 neuronal supplement and incubated for 30-45 minutes at 37° C. and 5% CO2. For coculturing, vandefitemcel (or SB623) cells or astrocytes were cocultured by adding 10-20 μL of cell solution with 1.5×10^4 cells per well following a new incubation for 45 minutes at 37° C. and 5% CO2. Fresh medium was added to reach a volume of 400 μL per well and cells incubated at 37° C. and 5% CO2. Half of the medium volume was changed every three or four days. To isolate the presynaptic activity on MEAs with iFbNs after 50 days of culture, 50 μM of the broad glutamate receptor antagonist Kynurenic acid (from R&D Systems, Minneapolis, MN) was added at 90 seconds from the start of the recording. Spike activity was assessed to detect the blockage of glutamate receptor activity.\nMEA recordings were performed at 37° C. and 5% CO2 using Maestro Edge (from Axion Biosystems, Atlanta, GA). The medium was changed at least two hours before the recordings. Before recordings, levels of CO2 were adjusted to 5%. The duration of each recording was five minutes using AxIS Navigator 3.6.2 with configuration module Neural Real-Time; Spontaneous+Viability from Axion Biosystems with minimum spike rate for active electrodes of five spikes/minute."}, "[2]": {"tested_on": "vandefitemcel (or SB623 cells)", "experiment": "PrestoBlue cell viability of vandefitemcel treated with CB-839", "assay_type": "cell-based, human", "settings": "incubation with CB-839, PrestoBlue HS", "method": "Approximately 50 μL of conditioned medium (CM) was used to determine the glutamate concentration and cell viability. For this assay, PrestoBlue™ high-sensitivity (HS) Cell Viability Reagent (from Thermo Fisher Scientific, Waltham, MA) was used and the reaction absorbance of each sample was read after 2 hours of incubation following the manual procedure provided by the manufacturer.\nGlutamate can be involved in cell metabolism, where it is transformed into α-ketoglutarate and then enters into the tricarboxylic acid cycle to generate ATP [25]."}}}
{"smiles": "O=C(O)c1cc(=O)c2ccccc2[nH]1", "note": "[kynurenic acid, Kynurenic acid]", "values": [{"measurement": "spike activity of iFbN culture", "setting": "[1]", "value": "reduction in the spike activity"}]}
{"smiles": "O=C(Cc1cccc(OC(F)(F)F)c1)Nc1ccc(CCCCc2nnc(NC(=O)Cc3ccccn3)s2)nn1", "note": "[CB-839, Telaglenastat]", "values": [{"measurement": "viability of vandefitemcel", "setting": "[2]", "value": "did not alter the viability"}]}
